From patent publication US20250049736A1, “SULFONAMIDE DERIVATIVES AND THEIR USE AS SOLUBLE EPOXIDE HYDROLASE INHIBITORS” (THE UNITED STATES OF AMERICA, AS REPRESENTED BY THE …, priority 2021, published 2025)

Key:
[1] = target: human sEH (Homo sapiens (Human), UniProt P34913); experiment: Fluorescence-based sEH inhibitor screening assay (PHOME substrate); type: biochemical; details: dose-dependent fluorescence assay
Description: Fluorescence-based sEH inhibitor screening assay provided a convenient method for screening human epoxide hydrolase inhibitors. The assay utilized (3-phenyl-oxiranyl)-acetic acid cyano-(6-methoxy-naphthalen-2-yl)-methyl ester (PHOME) as substrate. […] The cyanohydrin quickly decomposed into cyanide ion and the highly fluorescent 6-methoxy-2-naphthaldehyde which was analyzed using an excitation wavelength of 330 nm and emission wavelength of 465 nm after a 30-minute reaction time in darkness.
The background AF was subtracted from the 100% initial activity and inhibitor AFs.

[2] = target: inducible nitric oxide synthase (iNOS) (Mus musculus (Mouse), UniProt P29477); experiment: iNOS inhibition primary assay; type: biochemical; details: 10 μM of each compound; mouse cell line
Description: Biochemical assay results are presented as the percent inhibition of specific binding or activity. The concentration of each compound was 10 μM.

[3] = test system: Plasma protein; experiment: Plasma protein binding, human; type: in vitro ADME
[4] = test system: Plasma protein; experiment: Plasma protein binding, mouse; type: in vitro ADME
[5] = Metabolic stability, human; type: in vitro ADME
[6] = Metabolic stability, mouse; type: in vitro ADME
[7] = Aqueous solubility @ pH 7.4; type: physicochemical
[8] = test system: Caco-2; experiment: Caco-2 permeability; type: in vitro ADME

Sequence of human sEH (P34913 whole entry): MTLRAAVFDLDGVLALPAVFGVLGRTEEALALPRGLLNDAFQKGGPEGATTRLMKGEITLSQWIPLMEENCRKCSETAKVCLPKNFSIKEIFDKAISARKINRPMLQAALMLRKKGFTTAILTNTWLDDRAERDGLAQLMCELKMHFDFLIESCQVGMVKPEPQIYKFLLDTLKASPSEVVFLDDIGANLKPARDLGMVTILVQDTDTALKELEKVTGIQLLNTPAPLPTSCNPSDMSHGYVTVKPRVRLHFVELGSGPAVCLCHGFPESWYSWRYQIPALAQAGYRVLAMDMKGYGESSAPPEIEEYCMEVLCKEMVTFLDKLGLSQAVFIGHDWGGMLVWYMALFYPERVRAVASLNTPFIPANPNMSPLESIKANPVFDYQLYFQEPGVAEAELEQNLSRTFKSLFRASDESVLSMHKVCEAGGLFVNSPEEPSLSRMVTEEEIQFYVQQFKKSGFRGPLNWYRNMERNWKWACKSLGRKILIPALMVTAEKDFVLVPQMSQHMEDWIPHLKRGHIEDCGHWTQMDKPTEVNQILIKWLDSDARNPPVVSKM

O=C(NC12CC3CC(CC(C3)C1)C2)NS(=O)(=O)c1ccccc1 [Compound 5d, N-(((3s,5s,7s)-adamantan-1-yl)carbamoyl)benzenesulfonamide]
IC50 [1]: 104 nM

C[Se]C(=N)NC(=NS(=O)(=O)c1ccc(C#N)cc1)NC12CC3CC(CC(C3)C1)C2 [Compound 9h, methyl N—N′-((3s,5s,7s)-adamantan-1-yl)-N′-((4-cyanophenyl)-sulfonyl)carbamimidoyl)carbamimidoselenoate]
% iNOS inhibition [2]: 93%

COc1ccc(S(=O)(=O)/N=C(\N=C(/N)[Se]C)NC23CC4CC(CC(C4)C2)C3)cc1 [Compound 9c]
% iNOS inhibition [2]: 94%

O=C(NC12CC3CC(CC(C3)C1)C2)NS(=O)(=O)c1ccc2ccccc2c1 [Compound 5e]
IC50 [1]: 1.21 nM
Plasma protein binding % of stability [3]: 99%
Plasma protein binding % of bound comp [4]: 98%
Plasma protein binding % of stability [4]: 88%
Metabolic stability Half life [5]: 33.4 min
Metabolic stability % remaining after 1 h [5]: 45%
Metabolic stability Half life [6]: 2.2 min
Metabolic stability % remaining after 1 h [6]: 0%

C[Se]C(=N)NC(=NS(=O)(=O)c1ccc(C(C)(C)C)cc1)NC12CC3CC(CC(C3)C1)C2 [Compound 9b, methyl N—N′-((3s,5s,7s)-adamantan-1-yl)-N′-((4-(tert-butyl)phenyl)sulfonyl)carbamimidoyl)carbamimidoselenoate]
% iNOS inhibition [2]: 95%

NN/C(=N/S(=O)(=O)c1ccc(OC(F)(F)F)cc1)NC12CC3CC(CC(C3)C1)C2 [Compound 13i]
IC50 [1]: 154 nM

O=S(=O)(NC(=S)NC12CC3CC(CC(C3)C1)C2)c1ccc(OC(F)(F)F)cc1 [Compound 11d, N-(((3s,5s,7s)-adamantan-1-yl)carbamothioyl)-4-(trifluoromethoxy)benzenesulfonamide]
IC50 [1]: 4.66 nM

CSC(=N)NC(=NS(=O)(=O)c1ccc(C(C)(C)C)cc1)NC12CC3CC(CC(C3)C1)C2 [Compound 8b, methyl N—N′-((3s,5s,7s)-adamantan-1-yl)-N′-((4-(tert-butyl)phenyl)sulfonyl)carbamimidoyl)carbamimidothioate]
% iNOS inhibition [2]: 52%

CS/C(N)=N/C(=NS(=O)(=O)c1ccc(OC(F)(F)F)cc1)NC12CC3CC(CC(C3)C1)C2 [Compound 8i]
IC50 [1]: 1.02 nM

C[Se]C(=N)NC(=NS(=O)(=O)c1ccc(C(F)(F)F)cc1)NC12CC3CC(CC(C3)C1)C2 [Compound 9j, methyl N—N′-((3s,5s,7s)-adamantan-1-yl)-N′-((4-(trifluoromethyl)phenyl)sulfonyl)carbamimidoyl)carbamimidoselenoate]
% iNOS inhibition [2]: 90%

C/C(N)=N\C(=N\S(=O)(=O)c1ccc(OC(F)(F)F)cc1)NC12CC3CC(CC(C3)C1)C2 [Compound 7i]
IC50 [1]: 9.89 nM

O=C(NC12CC3CC(CC(C3)C1)C2)NS(=O)(=O)c1ccc(OC(F)(F)F)cc1 [Compound 5i, N-(((3s,5s,7s)-adamantan-1-yl)carbamoyl)-4-(trifluoromethoxy)benzenesulfonamide]
IC50 [1]: 1.69 nM
Aqueous Solubility @ pH 7.4 [7]: 53 μg/mL
Efflux ratio ([8]; Caco-2): 0.8
Caco-2 permeability Aical to Basal (Papp) ([8]; apical to basal): 14.9 cm/sec (10^−6)
Caco-2 permeability Basal to Apical (Papp) ([8]; basal to apical): 12.6 cm/sec (10^−6)
Plasma protein binding % of stability [3]: 99%
Plasma protein binding % of bound comp [4]: 98%
Metabolic stability Half life [5]: 106.3 min
Metabolic stability % remaining after 1 h [5]: 80%
Metabolic stability Half life [6]: 4.9 min
Metabolic stability % remaining after 1 h [6]: 0%

C[Se]/C(N)=N/C(=NS(=O)(=O)c1ccc(OC(F)(F)F)cc1)NC12CC3CC(CC(C3)C1)C2 [Compound 9i]
IC50 [1]: 3.84 nM
% iNOS inhibition [2]: 87%

O=S(=O)(NC(=S)NC12CC3CC(CC(C3)C1)C2)c1ccccc1 [Compound 11c, N-(((3s,5s,7s)-adamantan-1-yl)carbamothioyl)benzenesulfonamide]
IC50 [1]: 131 nM
